Experimental data: patent US20230120044A1, “AGROCHEMICAL ADJUVANTS” (Croda International Plc, priority 2020, published 2023)

Tests used:
[1] = tested on: Botrytis cinerea (ATCC 90479); test: Adjuvancy with pyraclostrobin, agar growth inhibition of hyphal inoculum; type: cell-based; conditions: for Fold Change in Growth Inhibition: vs pyraclostrobin alone, 48 hours, 22° C.
Experimental: Percent Inhibition—The percent inhibition will be understood to represent the amount the fungicide and/or adjuvant inhibits the visible growth of the microorganism after 48 hours incubation at 22° C. relative to vehicle treated controls. This is calculated using the following formula: […]
Fold Change—The fold change is a measure of the adjuvant/fungicide combination in inhibiting a microorganism compared to the fungicide alone. This indicates how the adjuvant performs relative to the fungicide alone. This is calculated using the following formula: […]
Botrytis cinerea (ATCC 90479) was cultured on potato dextrose agar (PDA) for 7 days with diurnal UV cycles (12 h UV light and 12 h dark). Spores were harvested in a buffered, sterile saline solution (0.9% saline water with 1% Tween 80) and counted using a haemocytometer. The spore suspension was adjusted to a final concentration of 8.5×10^6 spores/mL to create a standardised inoculum.
To prepare hyphal fragments for adjuvant testing, 8.5×10^4 spores were used to inoculate 10 mL of potato dextrose broth in a 150×25 mm tube. The tube was incubated at 220 RPM, 22° C. for 48 hours. To create hyphal fragments from the culture, the culture was transferred to a 50 mL plastic conical tube containing approximately 20 sterile 5 mm diameter glass beads and vortexed for 5 min. After vortexing the tube was allowed to stand for 5 min to allow large mycelial clumps to settle and then the top layer containing hyphal fragments was removed and used as inocula for growth inhibition assays.
Fungicides and adjuvants were dissolved in methanol and added to molten PDA (˜50° C.) and then the agar was distributed in the wells of 12 well multiwell plates (1 mL/well). The plates were cooled to room temperature and 10 μL of hyphal inoculum was added to the centre of each well. The plates were incubated at 22° C. for 48 hours and then the colony diameter was measured using a digital caliper. The biological growth control consisted of hyphae and vehicle (0.07% methanol), the negative control was media and vehicle (0.07% methanol).

Aspergillus flavus = test: Adjuvancy with other fungicides for other fungus, FT5; type: cell-based
Experimental: (§1) To evaluate the biological spectrum of activity, lamellicolic anhydride adjuvant (Ta) was tested in combination with seven fungicides against six different fungal test organisms belonging to five different genera.
(§2) Prior to evaluating the adjuvant effect of (Ia), the minimum inhibitory concentration (MIC) for each fungicide against each test organism was determined by measuring growth on agar plates containing decreasing concentrations of fungicide.
(§3) Once the MIC was determined, adjuvant testing was performed with the concentration of (Ta) fixed at 4 μg/mL and each fungicide at a concentration which inhibited growth of the fungus by 10-20%.
(§4) Fungal targets are: FT1 —Fusarium solani, FT2 —Fusarium oxysporum, FT3 —Alternaria infectorium, FT4 —Penicillium roqueforti, FT5 —Aspergillus flavus, FT6 —Cladosporium sp.
(§5) The numbers indicate fold change improvement in fungal growth inhibition relative to the fungal test organisms treated with fungicide and adjuvant vehicle alone. A value of 1 would indicate no effect on fungicidal activity, whilst a value >1 indicates improved fungicidal activity. n.t. indicates not tested.

Penicillium roqueforti = test: Adjuvancy with other fungicides for other fungus, FT4; type: cell-based
Experimental: as §1, §2, §3, §4, §5

Fusarium solani = test: Adjuvancy with other fungicides for other fungus, FT1; type: cell-based; conditions: Ia 4 μg/mL + dimethomorph 12.8 μg/mL
Experimental: as §1, §2, §3, §4, §5

Fusarium oxysporum = test: Adjuvancy with other fungicides for other fungus, FT2; type: cell-based; conditions: Ia 4 μg/mL + pyraclostrobin 0.01 μg/mL
Experimental: as §1, §2, §3, §4, §5

B. cinerea = test: Adjuvancy with other fungicides for B. cinerea; type: cell-based, Botrytis cinerea
Experimental: Botrytis cinerea (ATCC 90479) was cultured on potato dextrose agar (PDA) for 7 days with diurnal UV cycles (12 h UV light and 12 h dark). Spores were harvested in a buffered, sterile saline solution (0.9% saline water with 1% Tween 80) and counted using a haemocytometer. The spore suspension was adjusted to a final concentration of 8.5×10^6 spores/mL to create a standardised inoculum. To prepare hyphal fragments for adjuvant testing, 8.5×10^4 spores were used to inoculate 10 mL of potato dextrose broth in a 150×25 mm tube. The tube was incubated at 220 RPM, 22° C. for 48 hours. To create hyphal fragments from the culture, the culture was transferred to a 50 mL plastic conical tube containing approximately 20 sterile 5 mm diameter glass beads and vortexed for 5 min. After vortexing the tube was allowed to stand for 5 min to allow large mycelial clumps to settle and then the top layer containing hyphal fragments was removed and used as inocula for growth inhibition assays. Fungicides and adjuvants were dissolved in methanol and added to molten PDA (˜50° C.) and then the agar was distributed in the wells of 12 well multiwell plates (1 mL/well). The plates were cooled to room temperature and 10 μL of hyphal inoculum was added to the centre of each well. The plates were incubated at 22° C. for 48 hours and then the colony diameter was measured using a digital caliper. The biological growth control consisted of hyphae and vehicle (0.07% methanol), the negative control was media and vehicle (0.07% methanol). To expand the functional characterisation of the lamellicolic anhydride adjuvant (Ia) was tested in combination with seven fungicides belonging to six different fungicide groups as classified by the Fungicide Resistance Action Committee (FRAC Code List 2018). Numbers indicate fold change improvement in fungal growth inhibition relative to the fungal test organisms treated with fungicide and adjuvant vehicle alone. n.t. indicates not tested.

Alternaria infectorium = test: Adjuvancy with other fungicides for other fungus, FT3; type: cell-based
Experimental: as §1, §2, §3, §4, §5

Cladosporium sp. = test: Adjuvancy with other fungicides for other fungus, FT6; type: cell-based; conditions: Ia 4 μg/mL + pyrimethanil 0.006 μg/mL
Experimental: as §1, §2, §3, §4, §5

[2] = Ia 4 μg/mL + iprodione 0.0015 μg/mL
[3] = Ia 4 μg/mL + mancozeb 0.2 μg/mL
[4] = Ia 4 μg/mL + pyraclostrobin 0.001 μg/mL

C/C=C/[C@@H]1[C@H]2C[C@@H](C)CC[C@@H]2C(C)=C[C@H]1C(=O)c1c(O)c(-c2ccc(O)cc2)c[nH]c1=O [Ilicicolin H (A), ilicicolin H]
Fold Change in Growth Inhibition ([1]; adjuvant 1.56 μg/mL + pyraclostrobin 0.1 μg/mL): 3.32 | Fold Change in Growth Inhibition ([1]; adjuvant 1.56 μg/mL + pyraclostrobin 0.2 μg/mL): 1.93 | Fold Change in Growth Inhibition ([1]; adjuvant 1.56 μg/mL + pyraclostrobin 0.4 μg/mL): 1.36 | Fold Change in Growth Inhibition ([1]; adjuvant 1.56 μg/mL + pyraclostrobin 0.8 μg/mL): 1.04 | Fold Change in Growth Inhibition ([1]; adjuvant 3.13 μg/mL + pyraclostrobin 0.1 μg/mL): 3.51 | Fold Change in Growth Inhibition ([1]; adjuvant 3.13 μg/mL + pyraclostrobin 0.2 μg/mL): 2.43 | Fold Change in Growth Inhibition ([1]; adjuvant 3.13 μg/mL + pyraclostrobin 0.4 μg/mL): 1.35 | Fold Change in Growth Inhibition ([1]; adjuvant 3.13 μg/mL + pyraclostrobin 0.8 μg/mL): 1.21 | Fold Change in Growth Inhibition ([1]; adjuvant 6.25 μg/mL + pyraclostrobin 0.1 μg/mL): 3.62 | Fold Change in Growth Inhibition ([1]; adjuvant 6.25 μg/mL + pyraclostrobin 0.2 μg/mL): 1.88 | Fold Change in Growth Inhibition ([1]; adjuvant 6.25 μg/mL + pyraclostrobin 0.4 μg/mL): 1.26 | Fold Change in Growth Inhibition ([1]; adjuvant 6.25 μg/mL + pyraclostrobin 0.8 μg/mL): 0.96 | inherent fungicidal activity on their own ([1]; adjuvant alone, at any of the concentrations tested): did not demonstrate any inherent fungicidal activity

Cc1cc(O)c2c3c(c(O)cc(O)c13)C(=O)OC2=O [Lam 261 (Ia), Lamellicolic anhydride]
fold change improvement in fungal growth inhibition (Aspergillus flavus; Ia 4 μg/mL + dimethomorph 12.8 μg/mL): 1.27 | fold change improvement in fungal growth inhibition (Aspergillus flavus; [2]): 1.72 | fold change improvement in fungal growth inhibition (Aspergillus flavus; [3]): 2.01 | fold change improvement in fungal growth inhibition (Aspergillus flavus; Ia 4 μg/mL + prothioconazole 0.012 μg/mL): 1.28 | fold change improvement in fungal growth inhibition (Penicillium roqueforti; Ia 4 μg/mL + captan 0.04 μg/mL): 1.17 | fold change improvement in fungal growth inhibition (Penicillium roqueforti; Ia 4 μg/mL + dimethomorph 0.8 μg/mL): 1.85 | fold change improvement in fungal growth inhibition (Penicillium roqueforti; [2]): 1.65 | fold change improvement in fungal growth inhibition (Penicillium roqueforti; [3]): 1.63 | fold change improvement in fungal growth inhibition (Penicillium roqueforti; Ia 4 μg/mL + prothioconazole 0.00375 μg/mL): 1.52 | fold change improvement in fungal growth inhibition (Penicillium roqueforti; [4]): 1.27 | fold change improvement in fungal growth inhibition (Penicillium roqueforti; Ia 4 μg/mL + pyrimethanil 0.02 μg/mL): 1.31 | fold change improvement in fungal growth inhibition (Fusarium solani): 1.63 | fold change improvement in fungal growth inhibition (Fusarium oxysporum): 1.63 | Fold Change in Growth Inhibition (B. cinerea; Lam 261 (Ia) 1 μg/mL + benomyl 0.0015 μg/mL): 16.45 | Fold Change in Growth Inhibition (B. cinerea; Lam 261 (Ia) 1 μg/mL + captan 0.008 μg/mL): 17.25 | Fold Change in Growth Inhibition (B. cinerea; Lam 261 (Ia) 1 μg/mL + captan 0.04 μg/mL): 27.32 | Fold Change in Growth Inhibition (B. cinerea; Lam 261 (Ia) 1 μg/mL + dimethomorph 0.8 μg/mL): 17.72 | Fold Change in Growth Inhibition (B. cinerea; Lam 261 (Ia) 1 μg/mL + mancozeb 0.1 μg/mL): 1.89 | Fold Change in Growth Inhibition (B. cinerea; Lam 261 (Ia) 1 μg/mL + mancozeb 0.2 μg/mL): 2.44 | Fold Change in Growth Inhibition (B. cinerea; Lam 261 (Ia) 1 μg/mL + metalaxyl 0.8 μg/mL): 31.72 | Fold Change in Growth Inhibition (B. cinerea; Lam 261 (Ia) 1 μg/mL + metalaxyl 1.6 μg/mL): 27.22 | Fold Change in Growth Inhibition (B. cinerea; Lam 261 (Ia) 1 μg/mL + prothioconazole 1.0 μg/mL): 5.53 | Fold Change in Growth Inhibition (B. cinerea; Lam 261 (Ia) 1 μg/mL + tebuconazole 0.00018 μg/mL): 15.13 | Fold Change in Growth Inhibition (B. cinerea; Lam 261 (Ia) 1 μg/mL + tebuconazole 0.00075 μg/mL): 9.37 | Fold Change in Growth Inhibition (B. cinerea; Lam 261 (Ia) 1 μg/mL, benomyl 0 μg/mL (adjuvant alone)): 1.00 | Fold Change in Growth Inhibition (B. cinerea; Lam 261 (Ia) 1 μg/mL, captan 0 μg/mL (adjuvant alone)): 1.00 | Fold Change in Growth Inhibition (B. cinerea; Lam 261 (Ia) 1 μg/mL, dimethomorph 0 μg/mL (adjuvant alone)): 1.00 | Fold Change in Growth Inhibition (B. cinerea; Lam 261 (Ia) 1 μg/mL, mancozeb 0 μg/mL (adjuvant alone)): 1.00 | Fold Change in Growth Inhibition (B. cinerea; Lam 261 (Ia) 1 μg/mL, metalaxyl 0 μg/mL (adjuvant alone)): 1.00 | Fold Change in Growth Inhibition (B. cinerea; Lam 261 (Ia) 1 μg/mL, prothioconazole 0 μg/mL (adjuvant alone)): 1.00 | Fold Change in Growth Inhibition (B. cinerea; Lam 261 (Ia) 1 μg/mL, tebuconazole 0 μg/mL (adjuvant alone)): 1.00 | Fold Change in Growth Inhibition (B. cinerea; Lam 261 (Ia) 2 μg/mL + benomyl 0.0015 μg/mL): 20.43 | Fold Change in Growth Inhibition (B. cinerea; Lam 261 (Ia) 2 μg/mL + captan 0.008 μg/mL): 32.35 | Fold Change in Growth Inhibition (B. cinerea; Lam 261 (Ia) 2 μg/mL + captan 0.04 μg/mL): 30.95 | Fold Change in Growth Inhibition (B. cinerea; Lam 261 (Ia) 2 μg/mL + dimethomorph 0.4 μg/mL): 31.0 | Fold Change in Growth Inhibition (B. cinerea; Lam 261 (Ia) 2 μg/mL + dimethomorph 0.8 μg/mL): 16.06 | Fold Change in Growth Inhibition (B. cinerea; Lam 261 (Ia) 2 μg/mL + mancozeb 0.1 μg/mL): 3.06 | Fold Change in Growth Inhibition (B. cinerea; Lam 261 (Ia) 2 μg/mL + mancozeb 0.2 μg/mL): 2.83 | Fold Change in Growth Inhibition (B. cinerea; Lam 261 (Ia) 2 μg/mL + metalaxyl 0.8 μg/mL): 45.13 | Fold Change in Growth Inhibition (B. cinerea; Lam 261 (Ia) 2 μg/mL + metalaxyl 1.6 μg/mL): 32.46 | Fold Change in Growth Inhibition (B. cinerea; Lam 261 (Ia) 2 μg/mL + prothioconazole 1.0 μg/mL): 26.91 | Fold Change in Growth Inhibition (B. cinerea; Lam 261 (Ia) 2 μg/mL + tebuconazole 0.00018 μg/mL): 21.61 | Fold Change in Growth Inhibition (B. cinerea; Lam 261 (Ia) 2 μg/mL + tebuconazole 0.00075 μg/mL): 9.79 | Fold Change in Growth Inhibition (B. cinerea; Lam 261 (Ia) 2 μg/mL, benomyl 0 μg/mL (adjuvant alone)): 1.00 | Fold Change in Growth Inhibition (B. cinerea; Lam 261 (Ia) 2 μg/mL, captan 0 μg/mL (adjuvant alone)): 1.00 | Fold Change in Growth Inhibition (B. cinerea; Lam 261 (Ia) 2 μg/mL, dimethomorph 0 μg/mL (adjuvant alone)): 1.00 | Fold Change in Growth Inhibition (B. cinerea; Lam 261 (Ia) 2 μg/mL, mancozeb 0 μg/mL (adjuvant alone)): 1.00 | Fold Change in Growth Inhibition (B. cinerea; Lam 261 (Ia) 2 μg/mL, metalaxyl 0 μg/mL (adjuvant alone)): 1.00 | Fold Change in Growth Inhibition (B. cinerea; Lam 261 (Ia) 2 μg/mL, prothioconazole 0 μg/mL (adjuvant alone)): 1.00 | Fold Change in Growth Inhibition (B. cinerea; Lam 261 (Ia) 2 μg/mL, tebuconazole 0 μg/mL (adjuvant alone)): 1.00 | fold change improvement in fungal growth inhibition (Alternaria infectorium; Ia 4 μg/mL + dimethomorph 0.2 μg/mL): 1.25 | fold change improvement in fungal growth inhibition (Alternaria infectorium; Ia 4 μg/mL + mancozeb 0.1 μg/mL): 2.45 | fold change improvement in fungal growth inhibition (Alternaria infectorium; Ia 4 μg/mL + prothioconazole 0.006 μg/mL): 1.50 | fold change improvement in fungal growth inhibition (Alternaria infectorium; [4]): 1.18 | fold change improvement in fungal growth inhibition (Cladosporium sp.): 1.67
